Columns and labels:
Drosophila melanogaster = assay: Fly Study I: protection from MTX-induced lethality; format: in vivo
Protocol: In this study, Drosophila melanogaster eggs (50 eggs per vial) were treated with either 0.005 mg TK-112690+0.4 mg MTX (Group 1), 0.01 mg TK-112690+0.4 mg MTX (Group 2), 0.04 mg TK-112690+0.4 mg MTX (Group 3), 0.1 mg TK-112690+0.4 mg MTX (Group 4), 0.4 mg MTX alone (Group 5) or saline blank (Group 6). Two vials of eggs for each dose group were evaluated for viability (viable flies plus pupae).
The efficacy of cancer chemotherapy can be improved if agents are available to reduce the adverse events associated with treatment with cytotoxic agents. To this end, Drosophila melanogaster (commonly know as the fruit fly) is an ideal organism to screen chemical compounds for such side-effect-reducing agents. This study is aimed at finding a dose of a 2,2′-anhydropyrimidine test article that protects against MTX-induced lethality in insects.
Increasing amounts of a 2,2′-anhydropyrimidine test article (typically 0.03 to 0.1 mg) are mixed in an aqueous solution with 0.3 (or 0.4) mg MTX. Four milliliters (mL) of a 2,2′-anhydropyrimidine test article+MTX solutions are added to an appropriate amount of instant fly medium. Fruit fly eggs are added to a 2,2′-anhydropyrimidine test article+MTX treated medium and incubated for up to 31 days. After the 31 day incubation, each assay is scored by the number of mature fly and pupae per vial.
The assays are set up in clear sterile polystyrene narrow diameter vials from Applied Scientific (Hampton, N.H.). Vials are stored in trays and incubated in a darkened 25° C. incubator.
Reagents and materials used are: 50 mg/mL MTX in H2O (pH 8), 20 mg/mL of the 2,2′-anhydropyrimidine test article in H2O, water, sterile polystyrene narrow diameter vials from Applied Scientific, Instant Drosophila Food Medium, Oregon-R Drosophila melanogaster, 25° C. incubator, and 15 mL polystyrene conical tubes
Each assay is performed in a separate fly vial. […] Pre-measured amounts of instant drosophila medium are added to each assay to achieve optimal hydration level. […] Assays are scored by the number of dead pupae or adult flies per vial.

CCRF-CEM cells = assay: Cell Culture Study I: MTX cytotoxicity, alamarBlue; format: cell-based, human; settings: 72 hours
Protocol: In this study, CCRF-CEM cells purchased from ATCC were cultured and then 12 tubes containing approximately 10^6 cells each treated for 72 hours with media (Group1), MTX 0.03 μM (Group2), MTX+Leucovorin 1 μM (Group3), MTX+Leucovorin 10 μM (Group4), MTX+Leucovorin 100 μM (Group5), MTX+TK-112690 1 μM (Group6), MTX+TK-112690 10 μM (Group7) and MTX+TK-112690 100 μM (Group8). […] Viability was measured as percent reduction of alamarBlue absorbance.
The tumor cell line CCR-CEM (human T-cell acute lymphoblastic leukemia) is obtained from American Type Culture Collection (CRL-1593.2) and cultured in accordance with the product information sheet with the following exceptions: 55.3 cm^2 Petri dishes are used instead of 75 cm^2 culture flasks, and 1% penicillin-streptomycin solution (HyClone SV30010) and 1% GlutaMAX™ (Gibco 35050) are added to the culture medium.
TK-112690, the representative 2,2′-anhydropyrimidine test article, is dissolved in 40% DMSO, sterile filtered then diluted with sterile distilled water to obtain initial working solutions of 10, 100 and 1000 μM. In testing, a 100 fold dilution is made in culture media to give final assay concentrations of 0.1, 1.0 and 10.0 μM. MTX (SAFC Biosciences M8407) is dissolved in sterile distilled water and 5 N NaOH then sterile filtered. The final pH of the stock solution is 7.8 and working solutions are made with sterile distilled water for final assay concentrations of 30, 3.0, 0.3, 0.03 and 0.003 μM. Leucovorin (Sigma F-7878) is dissolved in sterile distilled water, sterile filtered and diluted with sterile distilled water for final assay concentrations of 0.1, 1.0 and 10.0 μM.
Aliquots of 100 μL of cell suspension are plated in 96 well microtiter plates (Corning costar 3595) and placed in an atmosphere of 5% CO2 at 37° C. (Fisher Scientific Isotemp 3500 CO2 Incubator). After 24 hours, 100 μL of growth medium [RPMI-1640 w/L-glutamine (Cambrex 12-702Q) fortified with sodium pyruvate (HyClone SH30239.01), fetal bovine serum (SAFC Biosciences 12107C) and HEPES buffer (Gibco 15630)] and 2 μL of test solution or vehicle are added respectively per well and the plates incubated for an additional 72 hour incubation. MTX is evaluated at concentrations of 0.003, 0.03, 0.30 and 3.0 μM alone or in combination with either a 2,2′-anhydropyrimidine test article or Leucovorin at concentrations of 0.1, 1.0, 10.0 μM. At the end of incubation, the efficacy of anti-cell proliferation is determined by optical absorbance at λ=570 and 600 nm [Spectramax 250 (Molecular Devices)] in accordance with the standard alamarBlue™ (Biosource) protocol.
Group 1 is the cell control (media treated). Group 2 corresponds to cells treated with 0.03 μM MTX. Group 3 are cells treated with 1.0 μM Leucovorin. Group 4 are cells treated with 0.1 μM Leucovorin. Group 5 are cells treated with 10 μM TK-112690. Group 6 are cells treated with MTX+10 μM TK-112690. Group 7 are cells treated with MTX+1.0 μM TK-112690. Group 8 MTX+0.1 μM TK-112690.

| SMILES | effect of MTX on lethality in the flies (Drosophila melanogaster; 0.4 mg MTX alone vs saline) | viability, MTX alone vs cell control (CCRF-CEM cells; MTX 0.03 μM) | protection against MTX-induced lethality in the Fly model (Drosophila melanogaster; with MTX 0.4 mg, TK-112690 0.005 to 0.1 mg) | effect on MTX cytotoxicity (viability, alamarBlue) (CCRF-CEM cells; combined with MTX 0.03 μM) | viability, agent alone vs control (CCRF-CEM cells; without MTX) |
| --- | --- | --- | --- | --- | --- |
| CN(Cc1cnc2nc(N)nc(N)c2n1)c1ccc(C(=O)N[C@@H](CCC(=O)O)C(=O)O)cc1 [MTX, N-[4-[[(2,4-diamino-6-pteridinyl)methyl]methylamino]benzoyl]-L-glutamic acid, reference compound] | highly significant | statistically significantly different from Group1 | – | – | – |
| Cc1cn2c(nc1=O)O[C@H]1[C@H](O)[C@@H](CO)O[C@H]12 [TK-112690, 2,2′-anhydro-5-methyluridine] | – | – | highly significant | do not interfere with methotrexate cytotoxicity | not statistically different than control |
